Reference: ChEMBL document CHEMBL3507680, “University of Dundee, Gates Library screen for HepG2 cell viability”

Assay: Human HepG2 cell viability assay in 384 well format
Format: toxicity, cell-based
Design: dose 125 nL, time 70.5 hour; cytotoxicity at 70.5 h: concentration not given beside the values
Conditions: HepG2 cells, read-out: Inhibition

SMILES | cytotoxicity at 70.5 h
NC(=O)c1cc(-n2cc(-c3cccc(C(=O)O)c3)cn2)cs1 | -9.85%
N#CCCN(Cc1ccccn1)C(=O)Nc1cccnc1 | -7.42%
CCc1noc(C)c1C(=O)N1CCCC1c1c(C)nn(C)c1OC (configuration not stated) | 18%
Cc1nc(CCNC(=O)NCC(c2ccco2)N(C)C)cs1 (configuration not stated) | -14.9%
O=C(NCCn1nc2ccccn2c1=O)c1cc[nH]n1 | 0.216%
CC(C)Nc1ccc(-c2ccnc3c2ccn3C)nn1 | 15.5%
Cc1nn(CC(C)C)c(C)c1CC(=O)N1CCCC(NS(C)(=O)=O)C1 (configuration not stated) | -3.7%
CCNC(=O)NC(=O)CSC(C)c1c(F)cccc1F (configuration not stated) | 10.3%
CCS(=O)(=O)N1CCC2(CCCC(=O)N2C)CC1 | -11%
Cc1nc(CN2CC[C@@H](OCC3CC3)[C@@H]2Cc2cccnc2)cs1 | -0.893%
CC(C)(C)n1ncc2c(=O)n(CC(=O)NCc3ccco3)cnc21 | -11.6%
CN1CCC(N2CC[C@@H]3[C@@H](CCC(=O)N3CCC3=CCCCC3)C2)CC1 | -1.35%
CC(=O)N1CCN(C(=O)CCCc2nnc(-c3ccccc3)o2)CC1 | -2.32%
COc1cc2nc(C)n(CC(=O)O)c(=O)c2cc1OC | -8.36%
COC(=O)CN1CCN(c2cccc(C)c2)CC1 | -2.66%
Cn1cc(CN2CCCn3cnc(CN4CCCC4=O)c3C2)cn1 | -17.3%
COc1cccc(CCC(=O)Nc2c(C)nn(C)c2C)c1OC | -10.8%
O=C(NCCCN1CCOCC1)c1ccnc(OCc2ccccc2)c1 | -1.25%
Cc1nnc(SCC(=O)c2cc3c(cc2Cl)NC(=O)C3)s1 | -30.2%
CNc1nc(CNC(=O)Nc2cccc(C)c2Cl)cs1 | -1.43%
CC(=O)Cc1c(C)nn(-c2cncc(C(N)=O)c2)c1C | -9.56%
CCN(Cc1ccc2c(c1)OCCO2)C(=O)NCc1csc(C)n1 | -9.9%
Cc1ccccc1-n1ccc2nc(N3CCCC3)ncc2c1=O | -13.6%

SMILES | cytotoxicity at 70.5 h
CCSCCN1CCCN(S(C)(=O)=O)CC1 | -2.21%
Cc1nnsc1C(=O)N1CC[C@H](c2ccccc2)[C@@H]2[C@H]1CCCCN2C | -3.09%
O=C1CCCN1CC1CCCCN1C(=O)Nc1cccc(F)c1 (configuration not stated) | -14.6%
CCc1ccc(NS(=O)(=O)CC2=NC(=O)n3cccc3C2=O)cc1 | -5.39%
CCOC(=O)C(CO)NC(=O)CCc1cccc(OC2CCCC2)c1 (configuration not stated) | -3.2%
Cc1cccc(CN2C[C@@H]3COC[C@]3(COc3cccnc3)C2)n1 | -120%
COCc1cc(CC2(NC3CCCCC3)COC2)no1 | 9.57%
O=C(c1ccc(-c2cccc3c2CCNC3)o1)N1CCOCC1 | -6.54%
CC1CN(C(=O)c2ccnc(OCCN(C)C)c2)c2ccccc21 (configuration not stated) | -14.8%
COc1cc(N2C[C@H]3OCC[C@H]3[C@H](C(=O)N3CCCC3)C2)ncn1 | 27.7%
CCC[C@H]1CN(S(=O)(=O)c2cc(C)ccc2C)C[C@@H]1N | -0.438%
O=C(Cc1ccccn1)N1CCN(C(=O)CC2CCCC2)CC1 | -1.56%
c1ccc(CO[C@@H]2CN(Cc3cccnc3)[C@@H]3COC[C@@H]32)nc1 | 5.82%
Cc1cc(C)n(CC2CCCN2C(=O)CCc2cscn2)n1 (configuration not stated) | -8.27%
CN1CCS(=O)(=O)[C@@H]2CCN(C(=O)c3ccccc3)CC[C@@H]21 | -9.02%
Cc1ccc(CNC(=O)CN2CCN(CC(O)C3CC3)CC2)cc1 (configuration not stated) | -8.6%
CCS(=O)(=O)Nc1ccc2oc(C)c(C(C)=O)c2c1 | 28.3%
CN(c1ncccc1C#N)C1CCN(Cc2ccncc2)CC1 | -3.31%
COc1ccc(OC)c(NC(=O)c2nc3ccccc3n(C)c2=O)c1 | -7.65%
Cn1cc2ncn(CCC3CCN(Cc4ccccc4)C3)c(=O)c2n1 (configuration not stated) | -7%
COc1ccc(N(CCC(N)=O)C(=O)CSc2ccc(F)c(F)c2)cc1 | -12.7%
CC(C)NC(=O)c1cc(Br)cc(S(=O)(=O)N2CCOCC2)c1F | -0.805%
COc1ccc(CC(=O)NC2CCN(CC(F)F)CC2)cc1OC | 0.793%

SMILES | cytotoxicity at 70.5 h
CC1CCN(c2nc(O)cc(C3CC(=O)N(C4CCCCC4)C3)n2)CC1 (configuration not stated) | -8.25%
COc1ncccc1C1CC(=O)NCc2nc3sccn3c21 (configuration not stated) | -12.8%
Cc1cnccc1CN(C)C(=O)c1ccc(Cn2cnnn2)cc1 | 37.3%
CC(C)(N)C(=O)N1CCCC(c2cncc(Oc3cccnc3)n2)C1 (configuration not stated) | -3.9%
Cc1oc(-c2ccco2)nc1CN1CCc2cncnc2C1 | -1.22%
Cc1ccc(N2CCO[C@H]3CN(Cc4cnn(C)c4)C[C@H]32)nn1 | -19.2%
CC(=O)N[C@@H]1CN(C(=O)c2cc3sccc3[nH]2)C[C@H]1c1ccc(C)o1 | -3.33%
Cc1ccccc1C1(CN)CCOCC1 | -6.58%
CSCc1cccc(S(=O)(=O)NCCCn2ccnc2)c1 | -5.18%
c1ccc(CN2CC[C@]3(C[C@@H](Oc4ccccn4)CO3)C2)nc1 | 19.9%
Cc1nc(C)n(CC2CCCCN2CCOc2cccc(C#N)c2)n1 (configuration not stated) | -7.98%
Cc1ccccc1CNc1nc(O)cc(C2CC(=O)N(C)C2)n1 (configuration not stated) | -7.17%
CN(C)Cc1ccnc(C2CCCN2Cc2ccc(F)cn2)n1 (configuration not stated) | 17.2%
CS(=O)(=O)N[C@@H]1CN(Cc2ccc3ccccc3c2)C[C@H]1O | -2.76%
CS(=O)(=O)N1CC[C@H](c2nc3ccc(C(F)(F)F)cc3[nH]2)C1 | -4.96%
CC(Nc1ccc(Br)cc1)c1nc(C2CC2)no1 (configuration not stated) | -1.22%
CCc1cc(NCCCN(C)C2CCCC2)ncn1 | -11.3%
CC(=O)N1CCCN(C(=O)NC(C)c2csc3ccccc23)CC1 (configuration not stated) | -6.35%
O=C(C1CCOCC1)N1C[C@@H]2C[C@@H](c3nc(C4CC4)cs3)O[C@@H]2C1 | 8.69%
O=C(CCOc1ccccc1F)N1CCCC1Cn1cccn1 (configuration not stated) | 0.51%
O=C(C1=NN(Cc2ccccc2)c2ccccc2S1(=O)=O)N1CCCC1 | -0.281%
CC(C)c1cc(NC(=O)CN2CCc3ccccc3C2)on1 | -6.95%
Cc1nc(COc2ccc(OC3CCCCNC3=O)cc2)oc1C (configuration not stated) | 1.82%

SMILES | cytotoxicity at 70.5 h
CCOC(=O)N1CCC(NC(C)c2ccccc2-n2cccn2)CC1 (configuration not stated) | 35.4%
CCOc1cc(CNc2cc(-c3nc(C)no3)ccn2)ccc1OC | 1.28%
CN(C)c1cccc(C(=O)N2CCCC2c2ncc3c(n2)CCNC3)c1 (configuration not stated) | -2.08%
CC(C)c1nnc(N2C[C@@H]3CC[C@H](C2)N(Cc2ccccc2)C3)s1 | -4.82%
CN(Cc1cccnc1)CC1CC12CCCC2 (configuration not stated) | -5.63%
Cc1cnn(C2CCCN(C(=O)Cn3ccc(=O)n(C)c3=O)C2)c1 (configuration not stated) | -1.04%
COCC(NC(=O)c1ccco1)c1cccc(C(F)(F)F)c1 (configuration not stated) | -3.48%
COc1ccc(CC(=O)N2CC[C@@H](OC)[C@@H]2Cc2cccnc2)cc1 | -4.94%
COc1ccc(CNC(=O)N2CCCC(Nc3ccccc3)C2)cn1 (configuration not stated) | -7.17%
C=C(C)CNc1nc(CS(=O)(=O)c2ccccc2)cs1 | -2.16%
CCCc1nc(N2CCC(C)CC2)c2c(n1)c(C)nn2CC | -10.6%
COCCC(=O)N1C[C@H]2CN(Cc3cccc(C)c3)C(=O)[C@H]2C1 | -10.7%
Cn1cc(CN2CCCC(CCc3ccccc3C(F)(F)F)C2)cn1 (configuration not stated) | -1.24%
CS(=O)(=O)CCN(CCCO)C1CCc2ccccc21 (configuration not stated) | -98.4%
O=C(Cc1c[nH]c2ccccc12)N1CCC(Nc2cccnc2)CC1 | -0.82%
O=C(NCCNc1cnccn1)N1CCN(c2nccs2)CC1 | -8.94%
COc1cc(CNC(=O)Nc2nncs2)ccc1O | -1.98%
COc1cc(C(=O)NS(=O)(=O)c2cncc(Br)c2)ccc1C | -19%
COc1ccc(C(=O)N2C[C@@H](C(=O)O)[C@H](c3cccc(F)c3)C2)c(O)c1 | 5.73%
CNC(=O)Cn1c(CO)cnc1SCc1ccccc1Cl | 16.9%
CCN1CCCC(CNC(=O)C2(c3cc(C)cc(C)c3)CCC2)C1 (configuration not stated) | 28.2%
Nc1nnc(SCc2cc(=O)n3c4c(sc3n2)CCCC4)[nH]1 | -3.97%
CC1(C(=O)N2CCOCC2)CN(Cc2ccccc2F)CCO1 (configuration not stated) | -11.3%

SMILES | cytotoxicity at 70.5 h
O=C(CN1CCN(C(=O)c2sccc2C2CC2)CC1)NC1CC1 | 8.72%
C/C(NC(=O)c1cccs1)=C1\C(=O)C[C@@H]2[C@H]1C2(C)C | -10%
O=S(=O)(c1ccccc1Cl)N1CCc2nc(C3CCNCC3)ncc2C1 | -3.67%
Cc1n[nH]cc1CNCC1(c2ccccc2Cl)CCOCC1 | -4.88%
COc1ccc(CN(Cc2c[nH]cn2)CC2CCCO2)c(OC)c1 (configuration not stated) | -3.26%
Cc1cnc2n(c1=O)CC(C(=O)Nc1ccccc1Cl)CS2 (configuration not stated) | -5%
CCn1cc(C(=O)NCCc2nc(-c3ccc(C)cc3)n[nH]2)c(C)n1 | -4.26%
CCN1C[C@H]2C[C@H](C(=O)NCc3cccnc3)[C@@H](C1)O2 | 3.07%
CCn1nc2c(cc1=O)CN(Cc1nc(C)c3ccccc3n1)CC2 | -6.18%
CCNc1ncc(C(=O)N(C)Cc2nc3ccccc3n2C)cn1 | -2.99%
Cc1nc(N2CCC3(CCCN(C(C)C)C3=O)C2)c2sccc2n1 (configuration not stated) | -13.4%
CN(c1ccc(C(N)=O)nn1)C1CCC1 | -15.8%
COC(=O)C1CCCN1C(=O)c1ccc(-n2nc(C)cc2C)cc1 (configuration not stated) | -4.44%
COCCN1C(=O)CC[C@@H]2[C@H]1CCN2C(=O)C1CCOCC1 | -7.67%
c1cnnc(-c2noc(CCN3CCCO3)n2)c1 | -10.9%
c1cnc(N2CCCC(c3csc(Nc4cnccn4)n3)C2)nc1 (configuration not stated) | 19.8%
CCc1noc(C(C)N2CCN(CC(C)C)CC2)n1 (configuration not stated) | 12.8%
CCOCC1c2c(cnn2C)CCN1C(=O)c1ccncn1 (configuration not stated) | -14.6%
COCC(=O)NCc1cccc(Br)c1 | 19.4%
CC(C)CN1C[C@H]2C[C@H](C(=O)NC3CCC3)[C@@H](C1)O2 | -1.14%
